Measurements: patent US9962383B2, “Compounds, compositions and methods of agelastatin alkaloids” (Massachusetts Institute of Technology, priority 2013, dated 2018)
“Also recorded” adds a separate entry of the source.

The compounds below were run on HeLa (assay: 48-hour IC50 by SRB, HeLa cervical carcinoma cells). Conditions: not given.
Format: cell-based, human
Protocol: (§1) Cells were grown in media supplemented with fetal bovine serum (FBS) and antibiotics (100 μg/mL penicillin and 100 U/mL streptomycin). […] Cells were incubated at 37° C. in a 5% CO2, 95% humidity atmosphere.
(§2) Adherent cells (HeLa, A549, BT549, and IMR90) were added into 96-well plates (5,000 cells/well for HeLa cell line; 2,000 cells/well for A549, BT549, and IMR90 cell lines) in 100 μL media and were allowed to adhere for 2-3 hours. Compounds were solubilized in DMSO as 100× stocks, added directly to the cells (100 μL final volume), and tested over a range of concentrations (1 nM to 10 μM) in triplicate (1% DMSO final) on a half-log scale. DMSO and cell-free wells served as the live and dead control, respectively. […] Briefly, media was removed from the plate, and cells were fixed by the addition of 100 μL cold 10% trichloroacetic acid in water. After incubating at 4° C. for 1 h, the plates were washed in water and allowed to dry. Sulforhordamine B was added as a 0.057% solution in 1% acetic acid (100 μL), and the plates were incubated at room temperature for 30 min, washed in 1% acetic acid, and allowed to dry. […] IC50 values were determined from three or more independent experiments using TableCurve (San Jose, Calif.).

| Compound | IC50 [µM] |
| --- | --- |
| COC1NC(=O)c2ccc(Br)n2C1Cc1c[nH]c(=O)[nH]1 (single isomer, unassigned; (+)) [(+)-53, (+)-O-methyl-pre-agelastatin D] | > 10 |
| (−)-agelastatin B [(−)-2] | 4.8 ± 1.2 |
| (−)-di-epi-agelastatin C [(−)-52] | > 10 |
| CN1C(=O)N[C@@]2(O)[C@@H]3NC(=O)c4ccc(Br)n4[C@@H]3C[C@@]12O [(−)-3, (−)-agelastatin C] | > 10 |
| CO[C@@]12C[C@@H]3[C@@H](NC(=O)c4ccc(Br)n43)[C@@H]1NC(=O)N2C [(−)-5, (−)-agelastatin E] | 8.6 ± 0.81 |

The compounds below were run on human cell lines (U-937, HeLa, A549, BT549, IMR90) (assay: Ability to induce cell death in the panel of five human cell lines (Table 3)). Conditions: 48-hour exposure, 1 nM to 10 μM, cell lines of Table 3.
Format: cell-based
Protocol: Six (−)-agelastatins along with eight closely related derivatives prepared in the above examples were tested (Table 3). The six (−)-agelastatin alkaloids (1-6, respectively), (−)-O-methyl-di-epi-agelastatin A (50), (−)-dehydroagelastatin A (51), (−)-di-epi-agelastatin C (52), (+)-O-methyl-pre-agelastatin A and D (39 and 53, respectively), along with bicyclic pyrroles (+)-44, (+)-45, and triazone (+)-48 were tested for their ability to induce cell death in four human cancer cell lines (U-937, lymphoma; HeLa, cervical carcinoma; A549, non-small cell lung carcinoma; and BT549, breast carcinoma) and one immortalized normal human cell line (IMR90, lung fibroblasts) after a 48-hour exposure. […] Furthermore, enhanced activities in U-937 (20×) cell relative to the other cell lines (Table 3) were observed.
Adherent cells (HeLa, A549, BT549, and IMR90) were added into 96-well plates (5,000 cells/well for HeLa cell line; 2,000 cells/well for A549, BT549, and IMR90 cell lines) in 100 μL media and were allowed to adhere for 2-3 hours. Compounds were solubilized in DMSO as 100× stocks, added directly to the cells (100 μL final volume), and tested over a range of concentrations (1 nM to 10 μM) in triplicate (1% DMSO final) on a half-log scale. DMSO and cell-free wells served as the live and dead control, respectively. After 48 h of continuous exposure, the plates were evaluated using the SRB colorimetric assay as described previously (V. Vichai, K. Kirtikara, Nature Prot., 2006, 1, 1112). Briefly, media was removed from the plate, and cells were fixed by the addition of 100 μL cold 10% trichloroacetic acid in water. After incubating at 4° C. for 1 h, the plates were washed in water and allowed to dry. Sulforhordamine B was added as a 0.057% solution in 1% acetic acid (100 μL), and the plates were incubated at room temperature for 30 min, washed in 1% acetic acid, and allowed to dry. The dye was solubilized by adding 10 mM Tris base solution (pH 10.5, 200 μL) and incubating at room temperature for 30 min Plates were read at λ=510 nm. IC50 values were determined from three or more independent experiments using TableCurve (San Jose, Calif.).
In a 96-well plate, compounds were pre-added as DMSO stocks (1% final) in triplicate to achieve final concentrations of 1 nM to 10 μM on a half log scale. DMSO and cell-free wells served as the live and dead control, respectively. Suspension cells (U-937, CEM, CA46, Daudi, HL-60, and Jurkat; 10,000 cells/well) cells were distributed in 100 μL media to the compound-containing plate. After 48 h, cell viability was assessed by adding 20 μL of a PMS/MTS solution (A. H. Cory, T. C. Owen, J. A. Barltrop, J. G. Cory, Cancer Commun., 1991, 3, 207) to each well, allowing the dye to develop at 37° C. until the live control had processed MTS, and reading the absorbance at λ=490 nm. IC50 values were determined from three or more independent experiments using TableCurve (San Jose, Calif.).

| Compound | activity (ability to induce cell death) in words |
| --- | --- |
| COC1NC(=O)c2ccc(Br)n2C1Cc1c[nH]c(=O)[nH]1 (single isomer, unassigned; (+)) [(+)-53, (+)-O-methyl-pre-agelastatin D] | None |
| (−)-agelastatin B [(−)-2] | relatively weaker activity |
| (−)-di-epi-agelastatin C [(−)-52] | None |
| CO[C@@]12C[C@@H]3[C@@H](NC(=O)c4ccc(Br)n43)[C@@H]1NC(=O)N2C [(−)-5, (−)-agelastatin E] | relatively weaker activity |

Same assay, conditions: 48-hour exposure, 1 nM to 10 μM, cell lines of Table 3; listed as (−)-agelastatin C (3)

| Compound | activity (ability to induce cell death) in words |
| --- | --- |
| CN1C(=O)N[C@@]2(O)[C@@H]3NC(=O)c4ccc(Br)n4[C@@H]3C[C@@]12O [(−)-3, (−)-agelastatin C] | little activity at the concentrations examined; also recorded: abolishes activity |

Same assay, conditions: (−)-2 vs (−)-1, (−)-6 vs (−)-4, D (4) and E (5) vs A (1); Table 3 data

| Compound | reduction in anticancer potency relative to the compared agelastatin [fold] |
| --- | --- |
| CO[C@@]12C[C@@H]3[C@@H](NC(=O)c4ccc(Br)n43)[C@@H]1NC(=O)N2C [(−)-5, (−)-agelastatin E] | > 10 |

Each compound was assayed on HL-60 (assay: 48-hour IC50 by MTS, HL-60 acute promyelocytic leukemia cells). Conditions: not given.
Format: cell-based, human
Protocol: as §1
(§3) In a 96-well plate, compounds were pre-added as DMSO stocks (1% final) in triplicate to achieve final concentrations of 1 nM to 10 μM on a half log scale. DMSO and cell-free wells served as the live and dead control, respectively. […] IC50 values were determined from three or more independent experiments using TableCurve (San Jose, Calif.).

| Compound | IC50 [µM] |
| --- | --- |
| (−)-agelastatin B [(−)-2] | 2.4 ± 1 |
| CN1C(=O)N[C@@]2(O)[C@@H]3NC(=O)c4ccc(Br)n4[C@@H]3C[C@@]12O [(−)-3, (−)-agelastatin C] | > 10 |
| CO[C@@]12C[C@@H]3[C@@H](NC(=O)c4ccc(Br)n43)[C@@H]1NC(=O)N2C [(−)-5, (−)-agelastatin E] | 4.6 ± 3.6 |

The compounds below were run on BT549 (assay: 48-hour IC50 by SRB, BT549 breast carcinoma cells). Conditions: not given.
Format: cell-based, human
Protocol: as §1, §2

| Compound | IC50 [µM] |
| --- | --- |
| COC1NC(=O)c2ccc(Br)n2C1Cc1c[nH]c(=O)[nH]1 (single isomer, unassigned; (+)) [(+)-53, (+)-O-methyl-pre-agelastatin D] | > 10 |
| (−)-agelastatin B [(−)-2] | 4.8 ± 1.1 |
| (−)-di-epi-agelastatin C [(−)-52] | > 10 |
| CN1C(=O)N[C@@]2(O)[C@@H]3NC(=O)c4ccc(Br)n4[C@@H]3C[C@@]12O [(−)-3, (−)-agelastatin C] | > 10 |
| CO[C@@]12C[C@@H]3[C@@H](NC(=O)c4ccc(Br)n43)[C@@H]1NC(=O)N2C [(−)-5, (−)-agelastatin E] | 6.9 ± 2.5 |

These compounds were tested on Jurkat (assay: 48-hour IC50 by MTS, Jurkat acute T-cell leukemia cells). Conditions: not given.
Format: cell-based, human
Protocol: as §1, §3

| Compound | IC50 [µM] |
| --- | --- |
| (−)-agelastatin B [(−)-2] | 0.75 ± 0.44 |
| CN1C(=O)N[C@@]2(O)[C@@H]3NC(=O)c4ccc(Br)n4[C@@H]3C[C@@]12O [(−)-3, (−)-agelastatin C] | 5.31 ± 0.35 |
| CO[C@@]12C[C@@H]3[C@@H](NC(=O)c4ccc(Br)n43)[C@@H]1NC(=O)N2C [(−)-5, (−)-agelastatin E] | 1.5 ± 0.33 |

What follows are compounds tested on A549 (assay: 48-hour IC50 by SRB, A549 non-small cell lung carcinoma cells). Conditions: not given.
Format: cell-based, human
Protocol: as §1, §2

| Compound | IC50 [µM] |
| --- | --- |
| COC1NC(=O)c2ccc(Br)n2C1Cc1c[nH]c(=O)[nH]1 (single isomer, unassigned; (+)) [(+)-53, (+)-O-methyl-pre-agelastatin D] | > 10 |
| (−)-agelastatin B [(−)-2] | > 10 |
| (−)-di-epi-agelastatin C [(−)-52] | > 10 |
| CN1C(=O)N[C@@]2(O)[C@@H]3NC(=O)c4ccc(Br)n4[C@@H]3C[C@@]12O [(−)-3, (−)-agelastatin C] | > 10 |
| CO[C@@]12C[C@@H]3[C@@H](NC(=O)c4ccc(Br)n43)[C@@H]1NC(=O)N2C [(−)-5, (−)-agelastatin E] | > 10 |

These compounds were tested on U-937 (assay: 48-hour IC50 by MTS, U-937 lymphoma cells). Conditions: not given.
Format: cell-based, human
Protocol: as §1, §3

| Compound | IC50 [µM] |
| --- | --- |
| COC1NC(=O)c2ccc(Br)n2C1Cc1c[nH]c(=O)[nH]1 (single isomer, unassigned; (+)) [(+)-53, (+)-O-methyl-pre-agelastatin D] | > 10 |
| (−)-agelastatin B [(−)-2] | 1.06 ± 0.16 |
| (−)-di-epi-agelastatin C [(−)-52] | > 10 |
| CN1C(=O)N[C@@]2(O)[C@@H]3NC(=O)c4ccc(Br)n4[C@@H]3C[C@@]12O [(−)-3, (−)-agelastatin C] | > 10 |
| CO[C@@]12C[C@@H]3[C@@H](NC(=O)c4ccc(Br)n43)[C@@H]1NC(=O)N2C [(−)-5, (−)-agelastatin E] | 2.56 ± 0.13 |

The compounds below were run on CA46 (assay: 48-hour IC50 by MTS, CA46 Burkitt's lymphoma cells). Conditions: not given.
Format: cell-based, human
Protocol: as §1, §3

| Compound | IC50 [µM] |
| --- | --- |
| (−)-agelastatin B [(−)-2] | 1.07 ± 0.42 |
| CN1C(=O)N[C@@]2(O)[C@@H]3NC(=O)c4ccc(Br)n4[C@@H]3C[C@@]12O [(−)-3, (−)-agelastatin C] | > 10 |
| CO[C@@]12C[C@@H]3[C@@H](NC(=O)c4ccc(Br)n43)[C@@H]1NC(=O)N2C [(−)-5, (−)-agelastatin E] | 2.45 ± 0.95 |

What follows are compounds tested on IMR90 (assay: 48-hour IC50 by SRB, IMR90  lung fibroblasts). Conditions: IMR90 immortalized lung fibroblasts.
Format: cell-based, human
Protocol: as §1, §2

| Compound | IC50 [µM] |
| --- | --- |
| COC1NC(=O)c2ccc(Br)n2C1Cc1c[nH]c(=O)[nH]1 (single isomer, unassigned; (+)) [(+)-53, (+)-O-methyl-pre-agelastatin D] | > 10 |
| (−)-agelastatin B [(−)-2] | > 10 |
| (−)-di-epi-agelastatin C [(−)-52] | > 10 |
| CN1C(=O)N[C@@]2(O)[C@@H]3NC(=O)c4ccc(Br)n4[C@@H]3C[C@@]12O [(−)-3, (−)-agelastatin C] | > 10 |
| CO[C@@]12C[C@@H]3[C@@H](NC(=O)c4ccc(Br)n43)[C@@H]1NC(=O)N2C [(−)-5, (−)-agelastatin E] | > 10 |

The compounds below were run on Daudi (assay: 48-hour IC50 by MTS, Daudi Burkitt's lymphoma cells). Conditions: not given.
Format: cell-based, human
Protocol: as §1, §3

| Compound | IC50 [µM] |
| --- | --- |
| (−)-agelastatin B [(−)-2] | 0.46 ± 0.28 |
| CN1C(=O)N[C@@]2(O)[C@@H]3NC(=O)c4ccc(Br)n4[C@@H]3C[C@@]12O [(−)-3, (−)-agelastatin C] | 7.2 ± 2.9 |
| CO[C@@]12C[C@@H]3[C@@H](NC(=O)c4ccc(Br)n43)[C@@H]1NC(=O)N2C [(−)-5, (−)-agelastatin E] | 1.41 ± 0.53 |

What follows are compounds tested on CEM (assay: 48-hour IC50 by MTS, CEM acute lymphoblastic leukemia cells). Conditions: not given.
Format: cell-based, human
Protocol: as §1, §3

| Compound | IC50 [µM] |
| --- | --- |
| (−)-agelastatin B [(−)-2] | 0.29 ± 0.2 |
| CN1C(=O)N[C@@]2(O)[C@@H]3NC(=O)c4ccc(Br)n4[C@@H]3C[C@@]12O [(−)-3, (−)-agelastatin C] | 2.1 ± 1.3 |
| CO[C@@]12C[C@@H]3[C@@H](NC(=O)c4ccc(Br)n43)[C@@H]1NC(=O)N2C [(−)-5, (−)-agelastatin E] | 0.83 ± 0.37 |
